Source: patent US10710978B2, “STK4 inhibitors for treatment of hematologic malignancies” (Dana-Farber Cancer Institute, Inc., priority 2015, dated 2020)
Read-outs that look alike come from different tables or passages of the source.

Columns and labels:
STK4 (MST1) = STK4 (MST1) (Homo sapiens (Human), UniProt Q13043); assay: Z-lyte biochemical IC50 assay (Invitrogen); details: ATP concentration matched the Km
Method: (§1) STK4 (MST1), STK3 (MST2); STK24 (MST3) and MST4 Assays
(§2) Biochemical IC50s were measured at Invitrogen using Z-lyte technology. Briefly, for STK4, the 2×STK4 (MST1)/Ser/Thr 07 mixture was prepared in 50 mM HEPES pH 7.5, 0.01% BRIJ35, 10 mM MgCl2, 1 mM EGTA. The final 10 μL Kinase Reaction consisted of 6.25-160 ng STK4 (MST1) and 2 μM Ser/Thr 07 in 50 mM HEPES pH 7.5, 0.01% BRIJ-35, 10 mM MgCl2, 1 mM EGTA. After the 1 hour Kinase Reaction incubation, 5 μL of a 1:100000 dilution of Development Reagent A was added. Compounds were screened in a 10 point titration with 3-fold serial dilutions starting at a concentration of 10 μM. The biochemical IC50s against other STK family members were measured similarly. The ATP concentration used matched the Km for each kinase.

STK24 (MST3) = STK24 (MST3) (Homo sapiens (Human), UniProt Q9Y6E0); assay: Z-lyte biochemical IC50 assay (Invitrogen); details: ATP concentration matched the Km
Method: as §1, §2

GPRK6 = GPRK6 (Homo sapiens (Human), UniProt P43250); assay: KiNativ assay; format: binding; details: H929 live cell
How it was run: (§3)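 The cell-based KiNativ method was applied to H929 cells that were still live when dosed with compound at 10 μM, in duplicate, and IC50 was read by mass spectrometry.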

STLK3 = STLK3 (Homo sapiens (Human), UniProt Q9UEW8); assay: KiNativ assay; format: binding; details: H929 live cell
Method: (§4) Biochemical IC50s of the compounds of the present disclosure against various kinases were measured in a KiNativ assay. Compounds were screened in duplicate at 10 μM in H929 live cell. IC50 was measured via Mass spectroscopy (MS).

LOK = LOK (Homo sapiens (Human), UniProt O94804); assay: KiNativ assay; format: binding; details: H929 live cell
Method: as §4

eEF2K = eEF2K (Homo sapiens (Human), UniProt O00418); assay: KiNativ assay; format: binding; details: H929 live cell
Method: as §4

JAK1 domain2 = JAK1 domain2 (Homo sapiens (Human), UniProt P23458); assay: KiNativ assay; format: binding; details: H929 live cell
Method: as §4

MAP2K4 = MAP2K4 (Homo sapiens (Human), UniProt P45985); assay: KiNativ assay; format: binding; details: H929 live cell
Method: as §4

NEK4 = NEK4 (Homo sapiens (Human), UniProt P51957); assay: KiNativ assay; format: binding; details: H929 live cell
Method: as §4

TLK1 = TLK1 (Homo sapiens (Human), UniProt Q9UKI8); assay: KiNativ assay; format: binding; details: H929 live cell
Method: as §4

SGK3 = SGK3 (Homo sapiens (Human), UniProt Q96BR1); assay: KiNativ assay; format: binding; details: H929 live cell
Method: as §4

CHK2 = CHK2 (Homo sapiens (Human), UniProt O96017); assay: KiNativ assay; format: binding; details: H929 live cell
Method: as §4

ATM = ATM (Homo sapiens (Human), UniProt Q13315); assay: KiNativ assay; format: binding; details: H929 live cell
How it was run: (§5)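 Each compound is applied at 10 μM to live H929 cells in duplicate. Kinase activity-site labelling is then analysed by KiNativ. IC50 is obtained by mass spectrometry.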

CDK6 = CDK6 (Homo sapiens (Human), UniProt Q00534); assay: KiNativ assay; format: binding; details: H929 live cell
Method: as §4

CaMK4 = CaMK4 (Homo sapiens (Human), UniProt Q16566); assay: KiNativ assay; format: binding; details: H929 live cell
How it was run: as §3

CHK1 = CHK1 (Homo sapiens (Human), UniProt O14757); assay: KiNativ assay; format: binding; details: H929 live cell
Method: as §4

CDK2 = CDK2 (Homo sapiens (Human), UniProt P24941); assay: KiNativ assay; format: binding; details: H929 live cell
Method: as §4

AurA = AurA (Homo sapiens (Human), UniProt O14965); assay: KiNativ assay; format: binding; details: H929 live cell
Method: as §4

ZC3/MINK = ZC3/MINK (Homo sapiens (Human), UniProt Q8N4C8); assay: KiNativ assay; format: binding; details: H929 live cell
How it was run: as §5

MAST1, MAST2 = assay: KiNativ assay; format: binding; details: H929 live cell; for % inhibition: 10 μM, range class
How it was run: as §3

Wnk1, Wnk2, Wnk3 = assay: KiNativ assay; format: binding; details: H929 live cell; for % inhibition: 10 μM, range class
Method: as §4

AMPKa1, AMPKa2 = assay: KiNativ assay; format: binding; details: H929 live cell; for % inhibition: 10 μM, range class
Method: as §4

NEK7 = NEK7 (Homo sapiens (Human), UniProt Q8TDX7); assay: KiNativ assay; format: binding; details: H929 live cell
Method: as §4

PCTAIRE1 = PCTAIRE1 (Homo sapiens (Human), UniProt Q00536); assay: KiNativ assay; format: binding; details: H929 live cell
How it was run: as §5

CK1g3 = CK1g3 (Homo sapiens (Human), UniProt Q9Y6M4); assay: KiNativ assay; format: binding; details: H929 live cell
Method: as §4

[1] = range class, read-out: % inhibition

Sequence of JAK1 domain2 (P23458 whole entry, the tested form may be a part): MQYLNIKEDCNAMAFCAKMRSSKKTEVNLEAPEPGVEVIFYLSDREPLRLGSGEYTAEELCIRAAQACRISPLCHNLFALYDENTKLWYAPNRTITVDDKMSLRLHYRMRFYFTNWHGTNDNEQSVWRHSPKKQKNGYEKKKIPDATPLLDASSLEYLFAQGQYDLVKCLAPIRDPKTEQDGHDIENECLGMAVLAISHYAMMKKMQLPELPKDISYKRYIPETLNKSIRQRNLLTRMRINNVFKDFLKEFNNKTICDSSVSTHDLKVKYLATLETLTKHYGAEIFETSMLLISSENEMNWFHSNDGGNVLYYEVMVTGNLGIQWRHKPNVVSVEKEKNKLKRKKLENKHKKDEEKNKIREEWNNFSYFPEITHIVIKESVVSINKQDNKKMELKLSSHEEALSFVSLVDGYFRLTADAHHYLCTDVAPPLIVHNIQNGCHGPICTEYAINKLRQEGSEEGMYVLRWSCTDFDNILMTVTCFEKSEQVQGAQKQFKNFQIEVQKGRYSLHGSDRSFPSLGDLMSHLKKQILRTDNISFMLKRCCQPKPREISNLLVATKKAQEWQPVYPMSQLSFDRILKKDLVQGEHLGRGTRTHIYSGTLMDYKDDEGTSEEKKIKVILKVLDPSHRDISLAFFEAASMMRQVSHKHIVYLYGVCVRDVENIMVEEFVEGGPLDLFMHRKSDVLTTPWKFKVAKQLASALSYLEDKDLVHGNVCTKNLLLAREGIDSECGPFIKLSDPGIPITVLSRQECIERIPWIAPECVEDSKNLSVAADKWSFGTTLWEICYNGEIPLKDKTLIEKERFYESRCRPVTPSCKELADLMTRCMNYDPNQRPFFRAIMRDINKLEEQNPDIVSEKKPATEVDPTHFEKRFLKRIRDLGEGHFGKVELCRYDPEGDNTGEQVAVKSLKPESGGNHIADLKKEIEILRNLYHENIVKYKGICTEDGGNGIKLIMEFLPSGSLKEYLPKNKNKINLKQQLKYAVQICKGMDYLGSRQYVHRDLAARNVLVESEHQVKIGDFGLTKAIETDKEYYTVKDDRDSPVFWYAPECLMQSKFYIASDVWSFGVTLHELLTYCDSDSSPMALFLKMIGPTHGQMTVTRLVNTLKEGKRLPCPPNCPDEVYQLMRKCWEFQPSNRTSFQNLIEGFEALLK
Sequence of CHK1 (O14757 whole entry): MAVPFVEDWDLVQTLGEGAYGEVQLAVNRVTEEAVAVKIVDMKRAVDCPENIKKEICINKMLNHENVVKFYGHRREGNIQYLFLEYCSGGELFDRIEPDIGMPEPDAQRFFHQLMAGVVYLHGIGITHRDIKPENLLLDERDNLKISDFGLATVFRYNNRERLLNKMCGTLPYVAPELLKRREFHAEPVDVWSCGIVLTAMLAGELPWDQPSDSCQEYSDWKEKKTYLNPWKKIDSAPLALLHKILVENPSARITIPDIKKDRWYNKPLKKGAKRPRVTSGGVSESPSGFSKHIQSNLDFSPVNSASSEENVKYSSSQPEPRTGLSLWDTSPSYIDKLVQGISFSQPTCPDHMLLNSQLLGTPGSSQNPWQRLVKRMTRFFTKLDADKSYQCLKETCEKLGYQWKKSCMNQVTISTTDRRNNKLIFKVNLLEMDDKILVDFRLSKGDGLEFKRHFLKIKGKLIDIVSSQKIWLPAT
Sequence of MAP2K4 (P45985 whole entry): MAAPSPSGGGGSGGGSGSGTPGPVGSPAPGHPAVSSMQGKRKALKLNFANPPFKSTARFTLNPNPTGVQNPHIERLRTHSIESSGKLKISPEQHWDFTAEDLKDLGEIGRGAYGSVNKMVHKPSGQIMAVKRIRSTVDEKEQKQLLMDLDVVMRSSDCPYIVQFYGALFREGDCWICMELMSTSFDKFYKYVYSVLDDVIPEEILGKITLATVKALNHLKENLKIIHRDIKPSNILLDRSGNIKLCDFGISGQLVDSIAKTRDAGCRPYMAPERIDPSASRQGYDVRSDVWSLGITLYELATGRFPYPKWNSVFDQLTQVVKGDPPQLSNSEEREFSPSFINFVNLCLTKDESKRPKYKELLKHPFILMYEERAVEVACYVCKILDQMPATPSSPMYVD
Sequence of LOK (O94804 whole entry): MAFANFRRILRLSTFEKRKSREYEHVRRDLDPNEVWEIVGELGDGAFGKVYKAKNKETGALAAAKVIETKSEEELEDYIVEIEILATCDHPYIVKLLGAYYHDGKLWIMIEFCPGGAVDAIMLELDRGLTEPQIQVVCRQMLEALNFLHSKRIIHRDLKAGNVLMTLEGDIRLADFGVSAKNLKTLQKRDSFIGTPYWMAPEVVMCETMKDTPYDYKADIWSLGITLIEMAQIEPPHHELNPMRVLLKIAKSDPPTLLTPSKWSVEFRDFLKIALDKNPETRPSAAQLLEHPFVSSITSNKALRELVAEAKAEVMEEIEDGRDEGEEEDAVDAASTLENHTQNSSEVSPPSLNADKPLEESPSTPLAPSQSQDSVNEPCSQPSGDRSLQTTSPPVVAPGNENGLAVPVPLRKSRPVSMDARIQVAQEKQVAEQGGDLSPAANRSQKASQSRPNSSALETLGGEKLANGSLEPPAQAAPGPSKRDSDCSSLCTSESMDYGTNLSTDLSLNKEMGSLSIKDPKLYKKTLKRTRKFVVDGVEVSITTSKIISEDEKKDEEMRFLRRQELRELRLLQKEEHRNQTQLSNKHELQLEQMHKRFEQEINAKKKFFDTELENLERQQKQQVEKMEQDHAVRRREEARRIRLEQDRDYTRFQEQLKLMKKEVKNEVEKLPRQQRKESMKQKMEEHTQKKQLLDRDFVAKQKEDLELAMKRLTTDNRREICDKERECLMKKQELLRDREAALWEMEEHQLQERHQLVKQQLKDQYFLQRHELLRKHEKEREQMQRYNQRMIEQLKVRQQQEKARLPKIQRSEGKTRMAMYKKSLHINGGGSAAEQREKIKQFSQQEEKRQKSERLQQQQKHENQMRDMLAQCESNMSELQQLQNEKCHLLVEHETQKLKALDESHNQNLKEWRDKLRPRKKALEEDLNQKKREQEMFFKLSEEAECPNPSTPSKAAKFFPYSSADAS
Sequence of AurA (O14965 whole entry): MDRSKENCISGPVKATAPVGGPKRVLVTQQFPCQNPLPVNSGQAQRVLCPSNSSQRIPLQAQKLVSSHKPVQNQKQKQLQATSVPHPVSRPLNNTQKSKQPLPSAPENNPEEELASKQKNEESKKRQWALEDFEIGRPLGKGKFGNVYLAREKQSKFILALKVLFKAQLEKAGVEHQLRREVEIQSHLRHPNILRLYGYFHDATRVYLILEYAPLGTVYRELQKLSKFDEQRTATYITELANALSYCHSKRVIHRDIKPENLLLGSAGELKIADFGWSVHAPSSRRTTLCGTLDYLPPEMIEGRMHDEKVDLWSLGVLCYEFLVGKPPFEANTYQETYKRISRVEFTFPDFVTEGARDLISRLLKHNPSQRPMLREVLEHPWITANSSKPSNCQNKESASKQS
Sequence of CHK2 (O96017 whole entry): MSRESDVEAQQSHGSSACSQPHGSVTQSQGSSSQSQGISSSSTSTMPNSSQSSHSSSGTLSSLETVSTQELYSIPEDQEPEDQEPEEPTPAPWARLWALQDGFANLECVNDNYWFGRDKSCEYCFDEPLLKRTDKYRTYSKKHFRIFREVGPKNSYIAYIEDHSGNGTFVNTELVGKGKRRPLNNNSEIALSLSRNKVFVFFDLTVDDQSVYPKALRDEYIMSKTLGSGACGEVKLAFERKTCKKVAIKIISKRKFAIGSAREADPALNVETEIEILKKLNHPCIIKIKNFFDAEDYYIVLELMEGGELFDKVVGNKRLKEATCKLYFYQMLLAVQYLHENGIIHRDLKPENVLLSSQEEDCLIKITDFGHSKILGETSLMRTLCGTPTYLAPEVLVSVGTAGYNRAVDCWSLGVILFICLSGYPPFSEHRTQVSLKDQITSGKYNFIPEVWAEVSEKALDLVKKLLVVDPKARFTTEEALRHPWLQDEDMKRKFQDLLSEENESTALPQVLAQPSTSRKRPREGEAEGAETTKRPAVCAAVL
Sequence of SGK3 (Q96BR1 whole entry): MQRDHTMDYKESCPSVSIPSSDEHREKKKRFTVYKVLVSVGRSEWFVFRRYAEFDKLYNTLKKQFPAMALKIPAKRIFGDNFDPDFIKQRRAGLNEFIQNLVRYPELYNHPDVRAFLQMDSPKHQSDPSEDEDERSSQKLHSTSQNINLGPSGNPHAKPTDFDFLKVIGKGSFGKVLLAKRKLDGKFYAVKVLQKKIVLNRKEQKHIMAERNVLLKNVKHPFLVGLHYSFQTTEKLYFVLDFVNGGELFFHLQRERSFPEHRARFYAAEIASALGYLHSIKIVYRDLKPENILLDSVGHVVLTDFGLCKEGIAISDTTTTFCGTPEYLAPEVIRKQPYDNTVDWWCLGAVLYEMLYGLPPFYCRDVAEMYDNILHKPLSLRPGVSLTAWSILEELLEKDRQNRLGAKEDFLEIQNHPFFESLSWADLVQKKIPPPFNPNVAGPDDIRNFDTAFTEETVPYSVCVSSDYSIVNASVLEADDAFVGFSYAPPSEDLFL
Sequence of CaMK4 (Q16566 whole entry): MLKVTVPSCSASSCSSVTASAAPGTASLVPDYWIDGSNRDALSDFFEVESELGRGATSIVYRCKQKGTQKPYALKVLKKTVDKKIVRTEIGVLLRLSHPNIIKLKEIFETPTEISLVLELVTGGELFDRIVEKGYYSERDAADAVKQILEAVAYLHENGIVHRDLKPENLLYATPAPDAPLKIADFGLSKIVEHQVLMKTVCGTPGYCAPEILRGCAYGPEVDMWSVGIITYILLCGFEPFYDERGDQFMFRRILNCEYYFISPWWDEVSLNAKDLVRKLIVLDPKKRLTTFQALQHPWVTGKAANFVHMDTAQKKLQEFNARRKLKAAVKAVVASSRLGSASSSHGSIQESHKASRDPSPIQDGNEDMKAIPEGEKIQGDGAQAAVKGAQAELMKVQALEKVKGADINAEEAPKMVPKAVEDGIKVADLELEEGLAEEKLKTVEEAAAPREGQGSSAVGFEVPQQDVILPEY

Nc1ncc(-c2ccc(NS(=O)(=O)C3CC3)cc2F)cc1-c1ccc2c(c1)CCNC2=O [Compound I-51, N-(4-(6-amino-5-(1-oxo-1,2,3,4-tetrahydroisoquinolin-6-yl)pyridin-3-yl)-3-fluorophenyl) cyclopropanesulfonamide]
IC50 (STK4 (MST1)): < 40 nM
IC50 (STK24 (MST3)): 40 to 200 nM
inhibition at 10 µM (GPRK6; [1]): 0%
inhibition at 10 µM (GPRK6; read-out: inhibition (10 μM)): 4.7%
inhibition at 10 µM (STLK3; [1]): 0%
inhibition at 10 µM (STLK3; read-out: inhibition (10 μM)): -5%
inhibition at 10 µM (LOK; [1]): > 90%
inhibition at 10 µM (LOK; read-out: inhibition (10 μM)): 96.9%
inhibition at 10 µM (eEF2K; [1]): 0%
inhibition at 10 µM (eEF2K; read-out: inhibition (10 μM)): 7.7%
inhibition at 10 µM (JAK1 domain2; [1]): 0%
inhibition at 10 µM (JAK1 domain2; read-out: inhibition (10 μM)): -6.4%
inhibition at 10 µM (MAP2K4; [1]): 35 to 40%
inhibition at 10 µM (MAP2K4; read-out: inhibition (10 μM)): 44.2%
inhibition at 10 µM (NEK4; [1]): 0%
inhibition at 10 µM (NEK4; read-out: inhibition (10 μM)): 25.8%
inhibition at 10 µM (TLK1; [1]): 0%
inhibition at 10 µM (TLK1; read-out: inhibition (10 μM)): -11.8%
inhibition at 10 µM (SGK3; [1]): 0%
inhibition at 10 µM (SGK3; read-out: inhibition (10 μM)): 26.3%
inhibition at 10 µM (CHK2; [1]): 0%
inhibition at 10 µM (CHK2; read-out: inhibition (10 μM)): 14.1%
inhibition at 10 µM (ATM; [1]): 35 to 40%
inhibition at 10 µM (ATM; read-out: inhibition (10 μM)): 40.3%
inhibition at 10 µM (CDK6; [1]): 0%
inhibition at 10 µM (CDK6; read-out: inhibition (10 μM)): 10.7%
inhibition at 10 µM (CaMK4; [1]): 0%
inhibition at 10 µM (CaMK4; read-out: inhibition (10 μM)): -61.2%
inhibition at 10 µM (CHK1; [1]): 0%
inhibition at 10 µM (CHK1; read-out: inhibition (10 μM)): -20.1%
inhibition at 10 µM (CDK2; [1]): 35 to 40%
inhibition at 10 µM (CDK2; read-out: inhibition (10 μM)): 35%
inhibition (10 μM) (AurA): 43.2%
inhibition at 10 µM (AurA; [1]): 35 to 40%
inhibition at 10 µM (AurA; read-out: inhibition (10 μM)): 46.7%
inhibition at 10 µM (ZC3/MINK; [1]): 50 to 75%
inhibition at 10 µM (ZC3/MINK; read-out: inhibition (10 μM)): 63.4%
% inhibition (MAST1, MAST2): 0.0%
inhibition (10 μM) (MAST1, MAST2): −2.9%
% inhibition (Wnk1, Wnk2, Wnk3): 0.0%
inhibition (10 μM) (Wnk1, Wnk2, Wnk3): 0.2%
% inhibition (AMPKa1, AMPKa2): 0.0%
inhibition (10 μM) (AMPKa1, AMPKa2): −20.5%
inhibition at 10 µM (NEK7; [1]): 0%
inhibition at 10 µM (NEK7; read-out: inhibition (10 μM)): -50.3%
inhibition at 10 µM (PCTAIRE1; [1]): 0%
inhibition at 10 µM (PCTAIRE1; read-out: inhibition (10 μM)): -0.2%
inhibition at 10 µM (CK1g3; [1]): 75 to 90%
inhibition at 10 µM (CK1g3; read-out: inhibition (10 μM)): 88.2%

Nc1ncc(-c2ccc(NS(=O)(=O)C3CC3)cc2OC2CCCCC2)cc1-c1ccc2c(c1)CCNC2=O [Compound I-65, N-(4-(6-amino-5-(1-oxo-1,2,3,4-tetrahydroisoquinolin-6-yl)pyridin-3-yl)-3-(cyclohexyloxy)phenyl) cyclopropanesulfonamide]
IC50 (STK4 (MST1)): < 40 nM
IC50 (STK24 (MST3)): > 900 nM
inhibition at 10 µM (GPRK6; [1]): 0%
inhibition at 10 µM (GPRK6; read-out: inhibition (10 μM)): 23.1%
inhibition at 10 µM (STLK3; [1]): 0%
inhibition at 10 µM (STLK3; read-out: inhibition (10 μM)): 31.4%
inhibition at 10 µM (LOK; [1]): > 90%
inhibition at 10 µM (LOK; read-out: inhibition (10 μM)): 98.7%
inhibition at 10 µM (eEF2K; [1]): 0%
inhibition at 10 µM (eEF2K; read-out: inhibition (10 μM)): -21.7%
inhibition at 10 µM (JAK1 domain2; [1]): 0%
inhibition at 10 µM (JAK1 domain2; read-out: inhibition (10 μM)): 10.1%
inhibition at 10 µM (MAP2K4; [1]): 0%
inhibition at 10 µM (MAP2K4; read-out: inhibition (10 μM)): -15.3%
inhibition at 10 µM (NEK4; [1]): 0%
inhibition at 10 µM (NEK4; read-out: inhibition (10 μM)): 23.7%
inhibition at 10 µM (TLK1; [1]): 0%
inhibition at 10 µM (TLK1; read-out: inhibition (10 μM)): -1.2%
inhibition at 10 µM (SGK3; [1]): 0%
inhibition at 10 µM (SGK3; read-out: inhibition (10 μM)): 13.5%
inhibition at 10 µM (CHK2; [1]): 0%
inhibition at 10 µM (CHK2; read-out: inhibition (10 μM)): 11.2%
inhibition at 10 µM (ATM; [1]): 35 to 40%
inhibition at 10 µM (ATM; read-out: inhibition (10 μM)): 48%
inhibition at 10 µM (CDK6; [1]): 0%
inhibition at 10 µM (CDK6; read-out: inhibition (10 μM)): 0.5%
inhibition at 10 µM (CaMK4; [1]): 0%
inhibition at 10 µM (CaMK4; read-out: inhibition (10 μM)): -21%
inhibition at 10 µM (CHK1; [1]): 0%
inhibition at 10 µM (CHK1; read-out: inhibition (10 μM)): -16%
inhibition at 10 µM (CDK2; [1]): 0%
inhibition at 10 µM (CDK2; read-out: inhibition (10 μM)): 21.6%
inhibition (10 μM) (AurA): 40.2%
inhibition at 10 µM (AurA; [1]): 35 to 40%
inhibition at 10 µM (AurA; read-out: inhibition (10 μM)): 45.4%
inhibition at 10 µM (ZC3/MINK; [1]): 50 to 75%
inhibition at 10 µM (ZC3/MINK; read-out: inhibition (10 μM)): 66.6%
% inhibition (MAST1, MAST2): 0.0%
inhibition (10 μM) (MAST1, MAST2): 3.0%
% inhibition (Wnk1, Wnk2, Wnk3): 0.0%
inhibition (10 μM) (Wnk1, Wnk2, Wnk3): −8.3%
% inhibition (AMPKa1, AMPKa2): 35-40%
inhibition (10 μM) (AMPKa1, AMPKa2): 39.0%
inhibition at 10 µM (NEK7; [1]): 0%
inhibition at 10 µM (NEK7; read-out: inhibition (10 μM)): -80%
inhibition at 10 µM (PCTAIRE1; [1]): 0%
inhibition at 10 µM (PCTAIRE1; read-out: inhibition (10 μM)): 9%
inhibition at 10 µM (CK1g3; [1]): 75 to 90%
inhibition at 10 µM (CK1g3; read-out: inhibition (10 μM)): 87.2%
